The record followed here is US11026426B2, “Oxadiazole and phenol derivatives as antibacterial and/or herbicidal agents” (NORTHERN ILLINOIS RESEARCH FOUNDATION, priority 2017, dated 2021).

Read-outs that look alike come from different tables or passages of the source. Bounds are passed on as bounds.

The target in one assay is AtIspF (Arabidopsis thaliana, UniProt Q9CAK8). Nature of the assay: University of Hamburg photometric enzymatic inhibition assay AtIspF. Conditions: read-out: AtIspF IC50. It counts as biochemical. The procedure:
(§1) Compounds were subjected to a photometric enzymatic assay to test for inhibition of the plant enzymes Arabidopsis thaliana IspD and IspF, and IspE from Lycopersicon esculentum.
The IspF assay mixture conditions were as follows: 100 mM Tris hydrochloride at pH 8.0 with 10 mM MgCl2, 1 mM dithiothreitol, 2.5 mM potassium phosphoenol pyruvate, 2 mM ATP, 1 mM of 4-diphosphocytidyl-2C methylerythritol 2-phosphate, 460 μM NADH, 1.1% (v/v) DMSO, 0.5 U CMP kinase, 2.4 mU IspF, 1 U lactate dehydrogenase, 1 U pyruvate kinase in 180 μL of solution. Solutions were incubated at 27° C. and monitored photometrically.

For assay [1], the system named is Pseudomonas aeruginosa. Nature of the assay: Antibacterial preliminary screening PA. Also: key: 0 represents no inhibition; 3 is comparable to commercial antibiotic control. It counts as cell-based. Conditions: score 0-3.
Assay [2] concerns the target T1, Mycobacterium tuberculosis IspD (MtIspD) (Mycobacterium tuberculosis, UniProt P9WKG9).
T1 sequence (P9WKG9 1-231): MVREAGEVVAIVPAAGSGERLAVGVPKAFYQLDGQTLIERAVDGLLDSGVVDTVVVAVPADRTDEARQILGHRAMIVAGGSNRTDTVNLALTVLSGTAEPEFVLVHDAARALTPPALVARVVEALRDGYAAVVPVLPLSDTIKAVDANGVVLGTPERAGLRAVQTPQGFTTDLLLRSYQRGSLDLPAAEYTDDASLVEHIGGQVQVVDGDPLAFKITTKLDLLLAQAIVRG
Nature of the assay: Thermal shift assay against MtIspD. Format: binding.

Assay [3] relates to Corynebacterium xerosis. Put plainly: Antibacterial preliminary screening CX. Also: key: 0 represents no inhibition; 3 is comparable to commercial antibiotic control. To be noted: score 0-3. Format: cell-based.
A further assay relates to lettuce seeds. Put plainly: Lettuce leaf assay. It counts as in vivo. To be noted: ranking 0-5. Also noted: key: 0 (no effect); 5(complete inhibition or bleaching). An excerpt:
The lettuce leaf assay is a qualitative assay used to determine the relative effectiveness of the test compounds at inhibition of germination of seeds and root development as well as causing bleaching of leaves. Isoprenoid synthesis is vital in plants as isoprene-product gibberellins are a class of growth hormones in plants responsible for stimulating cell elongation and division. In addition, some carotenoids are involved in photosynthesis as components of the electron transport chain. MEP pathway inhibitors have the potential to prevent synthesis of these necessary cellular components and growth hormones resulting in inhibition of germination and root development as well as causing chlorosis, or bleaching in the leaves. The lettuce leaf assay, explores the effects of compounds as potential MEP pathway inhibitors by evaluating the effect on bleaching, root development, and germination of lettuce seeds, which all rely on isoprenoid biosynthesis. […] The assay is a qualitative assay and the effects are given rankings from 0 (no effect) to 5 (complete inhibition or bleaching). In this assay, compounds are dissolved in a volatile organic solvent and applied to filter paper in a petri dish. The solvent is allowed to evaporate and lettuce seeds are applied followed by the addition of 5 mL of water to obtain the necessary concentrations. Seeds are allowed to grow and they are observed on day 3 and day 4 for evaluation.

In assay [4] the test system is Bacillus cereus. Nature of the assay: Antibacterial preliminary screening BC. Also: key: 0 represents no inhibition; 3 is comparable to commercial antibiotic control. It counts as cell-based. To be noted: score 0-3.
Assay [5] has as its target Lycopersicon esculentum IspE (LeIspE) (Solanum lycopersicum, UniProt P93841). Nature of the assay: Thermal shift assay against LeIspE. It counts as binding.
Assay [6] concerns Burkholderia thailandensis. Format: cell-based. To be noted: preliminary screening, score 0-3.
The next assay deals with LeIspE (Solanum lycopersicum, UniProt P93841). Put plainly: University of Hamburg photometric enzymatic inhibition assay LeIspE. Format: biochemical, Lycopersicon esculentum. Conditions: read-out: LeIspE IC50. The procedure: as §1
The IspE assay conditions were very similar to the IspD assay in which the assay mixture was composed of 100 mM Tris hydrochloride at pH 8.0 with 10 mM MgCl2, 1 mM dithiothreitol, 2.5 mM potassium phosphoenol pyruvate, 2 mM ATP, 1 mM of 4-Diphosphocytidyl-2-C-methylerythritol, 460 μM NADH, 1.1% (v/v) DMSO, 2.4 mU IspE, 1 U lactate dehydrogenase, 1 U pyruvate kinase in 180 μL of solution. Solutions were incubated at 27° C. and monitored photometrically.

The subject of assay [7] is Mycobacterium smegmatis. Put plainly: Antibacterial preliminary screening MS. Also: key: 0 represents no inhibition; 3 is comparable to commercial antibiotic control. It counts as cell-based. Conditions: score 0-3.
Assay [8] has as its system Escherichia coli. Put plainly: Antibacterial preliminary screening EC. Also: key: 0 represents no inhibition; 3 is comparable to commercial antibiotic control. It counts as cell-based. To be noted: score 0-3.
Assay [9] relates to Klebsiella pneumonia. Nature of the assay: Antibacterial preliminary screening KP. Also: key: 0 represents no inhibition; 3 is comparable to commercial antibiotic control. Format: cell-based. To be noted: score 0-3.
Another assay addresses AtIspD (Arabidopsis thaliana, UniProt P69834). Put plainly: University of Hamburg photometric enzymatic inhibition assay AtIspD. Format: biochemical. To be noted: read-out: AtIspD IC50. The procedure: as §1
The procedure for AtIspD enzymatic inhibition assay, was performed by making an assay mixture of 100 mM Tris hydrochloride at pH 8.0 with 10 mM MgCl2, 1 mM dithiothreitol, 2.5 mM potassium phosphoenol pyruvate, 2.1 mM CTP, 2 mM ATP, 1 mM of (2R,3S)-2,3-dihydroxy-4-oxopentyl phosphate, 460 μM NADH, 1.1% (v/v) DMSO, 0.4 U IspE, 1 U lactate dehydrogenase, 1 U pyruvate kinase and 2.4 mU IspD in 180 μL of solution. Solutions were incubated at 27° C. and monitored photometrically. By preparing the assay mixture with a large excess of IspE compared to IspD, any inhibition of IspE by the test inhibitor would be insignificant compared to IspD and therefore the rate of the reaction is determined by IspD activity.

Assay [10] concerns Micrococcus luteus. Nature of the assay: Antibacterial preliminary screening ML. Also: key: 0 represents no inhibition; 3 is comparable to commercial antibiotic control. It counts as cell-based. Conditions: score 0-3.
Assay [11] deals with Corynebacterium pseudodiphtheriae. Put plainly: Antibacterial preliminary screening CP.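 Also: 0 is no inhibition and 3 matches the commercial antibiotic control.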 Format: cell-based. To be noted: score 0-3.
The subject of assay [12] is Bacillus cereus. Put plainly: Antibacterial assay zone of inhibition Bc. Format: cell-based.
The test system of assay [13] is Escherichia coli. Put plainly: Antibacterial assay zone of inhibition Ec. It counts as cell-based.
Assay [14] has as its system Mycobacterium smegmatis. Nature of the assay: Antibacterial assay zone of inhibition Ms. It counts as cell-based.
Assay [15] relates to Burkholderia thailandensis. It counts as cell-based.
The test system of assay [16] is Klebsiella pneumonia. Put plainly: Antibacterial assay zone of inhibition Kp. It counts as cell-based.
In assay [17] the test system is Micrococcus luteus. Put plainly: Antibacterial assay zone of inhibition Ml. It counts as cell-based.
Assay [18] deals with Pseudomonas aeruginosa. Nature of the assay: Antibacterial assay zone of inhibition Pa. It counts as cell-based.
Assay [19] has as its system Corynebacterium pseudodiphtheriae. Nature of the assay: Antibacterial assay zone of inhibition Cp. Format: cell-based.
Assay [20] relates to Corynebacterium xerosis. Put plainly: Antibacterial assay zone of inhibition Cx. Format: cell-based.

Chain of AtIspD (P69834 62-302): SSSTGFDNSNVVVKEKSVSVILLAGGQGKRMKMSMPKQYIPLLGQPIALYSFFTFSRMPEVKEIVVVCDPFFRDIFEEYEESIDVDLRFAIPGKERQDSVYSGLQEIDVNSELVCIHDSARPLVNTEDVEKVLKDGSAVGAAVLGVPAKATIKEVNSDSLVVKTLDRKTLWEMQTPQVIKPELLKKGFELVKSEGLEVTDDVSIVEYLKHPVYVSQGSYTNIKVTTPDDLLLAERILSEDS
Chain of AtIspF (Q9CAK8 53-231): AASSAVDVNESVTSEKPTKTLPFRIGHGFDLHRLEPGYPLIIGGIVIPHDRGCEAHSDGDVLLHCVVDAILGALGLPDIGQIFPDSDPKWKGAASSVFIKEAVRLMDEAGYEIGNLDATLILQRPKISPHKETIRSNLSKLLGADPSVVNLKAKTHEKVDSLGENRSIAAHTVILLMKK
Chain of Lycopersicon esculentum IspE (LeIspE) (P93841 89-401): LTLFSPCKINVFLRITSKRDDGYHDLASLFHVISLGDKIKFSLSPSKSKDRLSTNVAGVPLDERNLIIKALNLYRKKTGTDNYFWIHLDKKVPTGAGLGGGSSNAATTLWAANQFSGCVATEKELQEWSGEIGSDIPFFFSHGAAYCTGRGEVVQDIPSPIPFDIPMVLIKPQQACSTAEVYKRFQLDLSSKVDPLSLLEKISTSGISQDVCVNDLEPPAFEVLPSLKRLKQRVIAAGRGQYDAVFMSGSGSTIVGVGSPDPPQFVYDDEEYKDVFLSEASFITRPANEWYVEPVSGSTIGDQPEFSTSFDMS
Chain of LeIspE (P93841 89-401): as above

The IC50 is the point on the concentration scale where inhibition reaches its midpoint. `COc1ccc(-c2nnc(-c3cc4ccccc4[nH]3)o2)cc1` [HGN-223, 2-(1H-indol-2-yl)-5-(4-methoxyphenyl)-1,3,4-oxadiazole]: the IC50 at AtIspF is > 1000 µM. The compound also gave a PA score in the assay with Pseudomonas aeruginosa [1] of 0. Also, in assay [2], the “MtIspD melting point change” value was 0.0 °C and the MtIspD melting temp came to 48.0 °C. Besides, the CX score in the assay with Corynebacterium xerosis [3] turned out to be 0. Moreover, in the assay with lettuce seeds (0.5 mM), the Bleaching amounted to 0, the Germination is listed as 1 and the “Root Dev.” value came out at 0. Besides, in the assay on lettuce seeds (1.0 mM), the Bleaching is on record as 0, the Germination was determined as 4 and the “Root Dev.” value is recorded as 0. The same compound yielded a BC score in the assay on Bacillus cereus [4] of 0. Further, in assay [5], the “LeIspE melting point change” value is −0.25 °C and the LeIspE melting temp was determined as 49.25 °C. The compound further yielded a BT score in assay [6] of 0. Moreover, the IC50 at LeIspE stood at 126 ± 12 µM. For the same compound, the MS score in the assay on Mycobacterium smegmatis [7] turned out to be 0. The compound further displayed an EC score with Escherichia coli [8] of 0. The compound also registered a KP score with Klebsiella pneumonia [9] of 0. Also, the 50% inhibitory concentration (IC50) on AtIspD amounted to 209 ± 29 µM. Also, the ML score with Micrococcus luteus [10] was 0. The compound further came in with a CP score in [11] of 0.
Consider `c1ccc(-c2cccc(-c3nnc(-c4cc5ccccc5[nH]4)o3)c2)cc1` [HGN-287, 2-([1,1′-biphenyl]-3-yl)-5-(1H-indol-2-yl)-1,3,4-oxadiazole], for which, on AtIspF, the IC50 is > 1000 µM. This compound gave a PA score in the assay on Pseudomonas aeruginosa [1] of 0. In addition, in [2], the “MtIspD melting point change” value was 0.5 °C and the MtIspD melting temp was found to be 48.5 °C. This compound showed a CX score in the assay on Corynebacterium xerosis [3] of 0. In the assay with lettuce seeds (0.15 mM), the Bleaching is given as 0, the Germination stood at 0 and the “Root Dev.” value came to 0. Moreover, in the assay with lettuce seeds (0.3 mM), the Bleaching was 0, the Germination worked out at 0 and the “Root Dev.” value stood at 0. The compound further returned a BC score in the assay on Bacillus cereus [4] of 0. In [5], the “LeIspE melting point change” value is −0.25 °C and the LeIspE melting temp stood at 49.25 °C. Moreover, in assay [6], the BT score is 0. The IC50 at LeIspE is > 1000 µM. Further, the MS score in the assay with Mycobacterium smegmatis [7] was determined as 0. The compound further showed an EC score in the assay with Escherichia coli [8] of 0. The compound also gave a KP score in the assay on Klebsiella pneumonia [9] of 0. Further, at AtIspD, the IC50 came out at 501 ± 82 µM. The compound further had an ML score in the assay with Micrococcus luteus [10] of 0. For the same compound, the CP score in assay [11] is recorded as 0.
In the case of `c1ccc(-c2ccc(-c3nnc(-c4cc5ccccc5[nH]4)o3)cc2)cc1` [HGN-288, 2-([1,1′-biphenyl]-4-yl)-5-(1H-indol-2-yl)-1,3,4-oxadiazole], the IC50 at AtIspF is > 1000 µM. Also, the PA score in the assay on Pseudomonas aeruginosa [1] turned out to be 0. In addition, in assay [2], the “MtIspD melting point change” value worked out at 1.0 °C and the MtIspD melting temp came out at 49.0 °C. This compound also displayed a CX score in the assay on Corynebacterium xerosis [3] of 0. Besides, in the assay with lettuce seeds (0.1 mM), the Bleaching worked out at 0, the Germination turned out to be 0 and the “Root Dev.” value was 0. In the assay on lettuce seeds (0.2 mM), the Bleaching was found to be 0, the Germination worked out at 0 and the “Root Dev.” value is given as 0. The compound further yielded a BC score in the assay on Bacillus cereus [4] of 0. Besides, in assay [5], the “LeIspE melting point change” value is −1.50 °C and the LeIspE melting temp was 48.00 °C. In assay [6], this compound registered a BT score of 0. Also, the IC50 at LeIspE is > 1000 µM. Moreover, the MS score with Mycobacterium smegmatis [7] is given as 0. This compound showed an EC score in the assay on Escherichia coli [8] of 0. Besides, the KP score in the assay on Klebsiella pneumonia [9] worked out at 0. In addition, the IC50 on AtIspD is 255 ± 35 µM. In the assay on Micrococcus luteus [10], this compound had an ML score of 0. The CP score in assay [11] is given as 0.
As to `Clc1ccc(OCc2nnc(-c3cc4ccccc4[nH]3)o2)c(Cl)c1` [HGN-810], the entries for the “Antibacterial Bc zone of inhibition” value in the assay on Bacillus cereus [12] (0.1 mM), in the assay with Bacillus cereus [12] (0.5 mM) and with Bacillus cereus [12] (1 mM) were 0 millimeters, 11 millimeters and 16.5 millimeters, respectively. The “Antibacterial Ec zone of inhibition” value in the assay on Escherichia coli [13] (0.1 mM), in the assay on Escherichia coli [13] (0.5 mM) and with Escherichia coli [13] (1 mM) was 0 millimeters each time. Besides, the “Antibacterial Ms zone of inhibition” value with Mycobacterium smegmatis [14] (0.1 mM), with Mycobacterium smegmatis [14] (0.5 mM) and in the assay on Mycobacterium smegmatis [14] (1 mM) was 0 millimeters throughout. Besides, the “Antibacterial Bt zone of inhibition” value in assay [15] (0.1 mM), in assay [15] (0.5 mM) and in [15] (1 mM) was 0 11.5 17 millimeters each time. Also, the “Antibacterial Kp zone of inhibition” value in the assay with Klebsiella pneumonia [16] (0.1 mM), with Klebsiella pneumonia [16] (0.5 mM) and with Klebsiella pneumonia [16] (1 mM) was 0 millimeters throughout. In addition, the “Antibacterial Ml zone of inhibition” value in the assay on Micrococcus luteus [17] (0.1 mM), with Micrococcus luteus [17] (0.5 mM) and in the assay on Micrococcus luteus [17] (1 mM) was 0 millimeters throughout. Also, the “Antibacterial Pa zone of inhibition” value with Pseudomonas aeruginosa [18] (0.1 mM), in the assay with Pseudomonas aeruginosa [18] (0.5 mM) and with Pseudomonas aeruginosa [18] (1 mM) was 0 millimeters each time. Also, the “Antibacterial Cp zone of inhibition” value in [19] (0.1 mM), in [19] (0.5 mM) and in assay [19] (1 mM) was 0 millimeters in each case. The “Antibacterial Cx zone of inhibition” value in the assay on Corynebacterium xerosis [20] (0.1 mM), in the assay on Corynebacterium xerosis [20] (0.5 mM) and with Corynebacterium xerosis [20] (1 mM) was 0 millimeters throughout.
